Laboratory results reported in ChEMBL document CHEMBL1201862, “PubChem BioAssay data set” (2004).
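A five-concentration, 48-hour dose response in 96-well plates underlies each endpoint, interpolated linearly between surrounding concentrations. GI50 marks 50% less growth.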 Activity calls are given as the source filed them. No stated cut-off is given here; in the data, active = GI50 up to about 1.1 µM and inactive = higher.

Key:
Test in all cases: NCI anticancer screen, dose series, 48 h
A549 = test system: A549
HOP-62 = test system: HOP-62
OVCAR-5 = test system: OVCAR-5
M14 = test system: M14
ACHN = test system: ACHN
SK-MEL-5 = test system: SK-MEL-5
A498 = test system: A498
TK-10 = test system: TK-10
NCI-H226 = test system: NCI-H226
HT-29 = test system: HT-29
UACC-62 = test system: UACC-62
SF-268 = test system: SF-268
OVCAR-8 = test system: OVCAR-8
SK-MEL-28 = test system: SK-MEL-28
NCI-H23 = test system: NCI-H23
NCI/ADR-RES = test system: NCI/ADR-RES
OVCAR-4 = test system: OVCAR-4
HCC 2998 = test system: HCC 2998
CAKI-1 = test system: CAKI-1
T47D = test system: T47D

| SMILES | GI50 (A549) | GI50 (HOP-62) | GI50 (OVCAR-5) | GI50 (M14) | GI50 (ACHN) | GI50 (SK-MEL-5) | GI50 (A498) | GI50 (TK-10) | GI50 (NCI-H226) | GI50 (HT-29) | GI50 (UACC-62) | GI50 (SF-268) | GI50 (OVCAR-8) | GI50 (SK-MEL-28) | GI50 (NCI-H23) | GI50 (NCI/ADR-RES) | GI50 (OVCAR-4) | GI50 (HCC 2998) | GI50 (CAKI-1) | GI50 (T47D) |
| --- | --- | --- | --- | --- | --- | --- | --- | --- | --- | --- | --- | --- | --- | --- | --- | --- | --- | --- | --- | --- |
| CSC1=N/C(=C\c2ccc(Cl)cc2)C(=O)N1CN1CCCCC1 | 42.4 µM (inactive) | 20.4 µM (inactive) | 99.1 µM (inactive) | 79.1 µM (inactive) | 25.4 µM (inactive) | 32.4 µM (inactive) | 17.7 µM (inactive) | 31.6 µM (inactive) | > 100 µM (inactive) | 35.6 µM (inactive) | 65.8 µM (inactive) | 27.4 µM (inactive) | 37.1 µM (inactive) | > 100 µM (inactive) | 64.3 µM (inactive) | 54.3 µM (inactive) |  |  |  |  |
| CC1(C)N(OC2CCCCO2)C(c2ccccc2)C(c2ccccc2)=[N+]1[O-] (stereo not given) | 58.6 µM (inactive) | > 100 µM (inactive) | > 100 µM (inactive) | 64 µM (inactive) | > 100 µM (inactive) | 52.1 µM (inactive) | > 100 µM (inactive) | > 100 µM (inactive) | > 100 µM (inactive) | > 100 µM (inactive) | > 100 µM (inactive) |  | 32.1 µM (inactive) | > 100 µM (inactive) | 49.9 µM (inactive) | 49.2 µM (inactive) | > 100 µM (inactive) | > 100 µM (inactive) | > 100 µM (inactive) |  |
| c1ccc(CCNCc2ccco2)nc1 | > 100 µM (inactive) | > 100 µM (inactive) | > 100 µM (inactive) | > 100 µM (inactive) | > 100 µM (inactive) | > 100 µM (inactive) | > 100 µM (inactive) | > 100 µM (inactive) | > 100 µM (inactive) | > 100 µM (inactive) | > 100 µM (inactive) | > 100 µM (inactive) | > 100 µM (inactive) | > 100 µM (inactive) | > 100 µM (inactive) | > 100 µM (inactive) | > 100 µM (inactive) | > 100 µM (inactive) | > 100 µM (inactive) |  |
| COC(=O)/C=C(\CC(=O)OC)n1nnnc1[C@@H]1C[C@H](COC(c2ccccc2)(c2ccccc2)c2ccccc2)[C@H]2OC(C)(C)O[C@H]21 | > 100 µM (inactive) | > 100 µM (inactive) | > 100 µM (inactive) | > 100 µM (inactive) | > 100 µM (inactive) | 76.7 µM (inactive) | > 100 µM (inactive) | > 100 µM (inactive) | > 100 µM (inactive) | > 100 µM (inactive) |  | > 100 µM (inactive) | > 100 µM (inactive) | > 100 µM (inactive) |  |  | > 100 µM (inactive) |  | > 100 µM (inactive) | 20.8 µM (inactive) |
| C=CCC1(C#N)C(=S)NC2=C(C(=O)CC(C)(C)C2)C1c1ccccc1 (stereo not given) | 33.8 µM (inactive) |  | > 100 µM (inactive) | 59.8 µM (inactive) |  | 45.6 µM (inactive) |  |  | 71.4 µM (inactive) | 34.6 µM (inactive) |  |  | 24 µM (inactive) | 61.8 µM (inactive) | 39.9 µM (inactive) | 56.9 µM (inactive) | 31 µM (inactive) |  | 74.3 µM (inactive) | 27.3 µM (inactive) |
| COc1ccc([C@H](NC(=O)c2ccccc2)[C@@H](O)C(=O)O[C@H]2C[C@@]3(O)C(OC(=O)c4ccccc4)C4[C@](C)(C(=O)[C@H](OC(C)=O)C(=C2C)C3(C)C)[C@@H](O)C[C@H]2OC[C@@]42OC(C)=O)cc1 (stereo not given in full) | 0.00618 µM (active) | 0.015 µM (active) | 0.182 µM (active) | 0.00604 µM (active) | 0.724 µM (active) | 0.00244 µM (active) |  | 0.0703 µM (active) | 0.00673 µM (active) | < 0.001 µM (active) | 0.00136 µM (active) | 0.00415 µM (active) | 0.00434 µM (active) | 0.00593 µM (active) | 0.00236 µM (active) | > 6.43 µM (inactive) | 3.11 µM (inactive) | 0.00301 µM (active) | 0.249 µM (active) |  |
